Patent publication US20030190396A1, “Methods and compositions for altering the sweetness delivery profile of sucralose” (priority 2002, published 2003)
Where a SMILES comes first, the peptide text is derived from it.

Columns and labels:
[1] = in vivo; cited from earlier work
[2] = Subcutaneous water retention in bodybuilders on a pre-competition diet (caliper test and visual inspection, Example 6); format: in vivo, human; conditions: ten bodybuilders; 12-week pre-competition diet with this sweetener only; caliper test and muscle definition score twice weekly
Protocol: This study was defined to determine whether the ingestion of sucralose results in reduced subcutaneous water retention compared to the water retention resulting from the ingestion of aspartame. Ten bodybuilders on a pre-competition diet were closely monitored. Prior to the pre-competition diet, the body fat and the weight of the ten bodybuilders were measured. Prior to this study, the participants in their normal diet refrained for one week from any products containing either sucralose or aspartame.
In the first phase of the study, during the 12-week pre-competition diet, the body builders consumed goods and liquids that were sweetened with aspartame only. Two methods for assessing subcutaneous water retention were used. […] As a second test, the subjective visual inspection was used, where the abdomen and overall body definition were visually inspected and photographed. As with the objective test, the subjects' muscle definition-value was determined twice weekly. A scale of 1 to 10 for muscle definition was used as an indicator for subcutaneous water retention, with a score of 10 indicating excellent muscle definition and 1 indicating poor definition. […]

[3] = test system: rats; conditions: cited from earlier work
[4] = Roberts, J. Appl. Nutr. 1988; cited from earlier work

Structure (SMILES)	sweetness intensity relative to sucrose [1]	subcutaneous water retention [2]	risk of causing cancer [3]	water retention within the body [4]
OC[C@H]1O[C@H](O[C@]2(CCl)O[C@H](CCl)[C@@H](O)[C@@H]2O)[C@H](O)[C@@H](O)[C@H]1Cl [sucralose, 4,1′,6′-trichloro-4,1′,6′-trideoxygalactosucrose]	several hundred times that of sucrose	This effect is reduced		
O=C1NS(=O)(=O)c2ccccc21 [Saccharin]			reported to be a risk in causing cancer in rats	
COC(=O)[C@H](Cc1ccccc1)NC(=O)[C@@H](N)CC(=O)O [aspartame, N-L-α-aspartyl-L-phenylalanine methyl ester] (H-Asp-Phe-OMe)		makes the body retain water		linked with excessive water retention within the body
